Values quoted from earlier work in PMC11064828 (Journal of Nuclear Medicine, 2024).

Legend:
[1] = test system: CAIX; conditions: 2 clinical trials of metastatic ccRCC
Source text: (§1) As a direct transcriptional target of hypoxia-inducible factor 1α, CAIX is overexpressed in several hard-to-treat tumors, including ccRCC, CRC, breast cancer, and PDAC ([2],[9]–[11]), making it a promising therapeutic target. However, to date, the transition of CAIX-targeting therapies to clinical settings has been poor ([7],[13]).

[2] = test system: CAIX; conditions: phase 1 study of advanced solid tumors
Source text: as §1, with “([7],[13]). Several small-molecule inhibitors of CAs, including CAIX, have been developed ([7],[13]).” for “([7],[13]).”

Compound | dose-limiting toxicity [1] | objective responses [2] | tolerability [2]
G250 to the β-emitter [^177Lu]Lu: anti-CAIX monoclonal antibody G250 conjugated to the β-emitter [^177Lu]Lu | dose-limiting myelotoxicity |  | 
NS(=O)(=O)c1ccc(NC(=O)Nc2ccc(F)cc2)cc1 [SLC-0111] |  | no objective responses | well tolerated
